{
  "source": "paper PMC12483151",
  "about": "“Late-Stage Functionalization of Lysine to Organelle-Targeting Fluorescent Probes” (JACS Au, 2025)",
  "key": {"E. coli": {"test_system": "E. coli", "details": "MHB, 37 °C, 18 h, OD600; for Discrete-well MIC (CLSI definition, two-fold dilutions): E. coli ~5 x 10^5 CFU/mL, lowest concentration with ≤ 10 % growth; for Extrapolated (interpolated) MIC (4-parameter logistic fit): E. coli, concentration at 10 % growth by curve fit", "description": "Plates were sealed and incubated\n(1 picture or pasted object on this page, not shown here)"}, "T-47D cells [1]": {"test_system": "T-47D cells"}, "T-47D cells [2]": {"test_system": "T-47D cells", "experiment": "Mitochondrial colocalization imaging with MitoTracker Red", "assay_type": "cell-based, Human", "details": "T-47D live cells", "experimental": "Cells were plated in an IBIDI 8-well glass bottom chamber at a density of 25,000 cells per well in media and allowed to adhere overnight at 37 °C, 5% CO2. Fresh 10 mM stock solutions of probes were prepared in DMSO on the day of experimentation. Working solutions of all compounds in media were prepared on the day of experimentation. Culture media was removed from the wells, and 200 mL of 100 nM probe was added to the desired wells and placed in an incubator for 30 min. Media was removed from the wells, and 200 mL of 100 nM MitroTracker-Red FM (ThermoFisher, M22425) was added to the desired wells and placed in an incubator for 15 min. Staining media was removed, and cells were washed with 200 μL of PBS for 5 min (repeated 3 times). PBS was removed and replaced with 200 mL of fresh medium, followed by immediate imaging. Five images were captured for each well. Colocalization analysis for Pearson’s R (R) and Mander’s Colocalization Coefficient (MCC) was conducted using the EzColocalization Plugin for ImageJ.\nColocalization studies – EzColocalization Details. Co-localization studies were done using\nEzColocalization. EzColocalization is an ImageJ Application Program Interface (APIs)-an open-source\nplugin, where individual cells can be highlighted and colocalization studies can be run across three\nchannels. The metric matrix for TOS (linear scaling) in the heatmap quantifies colocalization. FT […]"}},
  "note": "Several values for one entry are separate records, joined by “and”; a condition that tells them apart may be missing. Equal entries are not always repeated. Where a SMILES comes first, the peptide text is derived from it.",
  "data": [
    {"smiles": "COc1ccc(C(=O)c2c(-c3ccc(OC)cc3)cc(-c3ccc(OC)cc3)[n+](CCCC[C@H](NC(C)=O)C(=O)N[C@@H](CCCNC(=N)N)C(=O)N[C@@H](Cc3c[nH]c4ccccc34)C(=O)N[C@@H](CCCNC(=N)N)C(=O)N[C@@H](Cc3c[nH]c4ccccc34)C(N)=O)c2-c2ccc(OC)cc2)cc1", "note": "[5g]", "values": [
      {"measurement": "Discrete-well MIC (CLSI definition, two-fold dilutions)", "setting": "E. coli", "result": 125, "unit": "µM"},
      {"measurement": "Extrapolated (interpolated) MIC (4-parameter logistic fit)", "setting": "E. coli", "result": "0.0715 mM and 0.072 ± 0.01 mM"}
    ]},
    {"smiles": "COc1ccc(C(=O)c2c(-c3ccc(OC)cc3)cc(-c3ccc(OC)cc3)[n+](CCCC[C@H](NC(=O)[C@H](CC(=O)O)NC(=O)[C@H](CC(C)C)NC(C)=O)C(=O)N[C@H](C(=O)N[C@@H](CC(N)=O)C(=O)N[C@@H](CCCNC(=N)N)C(N)=O)C(C)C)c2-c2ccc(OC)cc2)cc1", "note": "[5b]", "values": [
      {"measurement": "Percentage cell death (average)", "setting": "T-47D cells [1]; 100 nM, 1 h, Annexin V/PI, n = 3 biological replicates, one average given for 4f and 5b", "result": 4.6, "unit": "%"}
    ]},
    {"smiles": "COc1cccc2c1C(=O)c1c(O)c3c(c(O)c1C2=O)C[C@@](O)(C(=O)CO)C[C@@H]3O[C@H]1C[C@H](N)[C@H](O)[C@H](C)O1", "note": "[Dox, doxorubicin]", "values": [
      {"measurement": "Pearson's coefficient (colocalization with MitoTracker Red)", "setting": "T-47D cells [2]; 100 nM probe, 100 nM MitoTracker Red, EzColocalization/ImageJ, 1 = perfect colocalization, -1 = none", "result": 0.397},
      {"measurement": "subcellular localization", "setting": "T-47D cells [2]; 100 nM, co-stained with MitoTracker Red", "result": "primarily colocalized with the nucleus"},
      {"measurement": "survival less than DOX-Py", "setting": "T-47D cells [1]; 100 nM, 1 h, Annexin V/PI, n = 3 biological replicates", "result": 20, "unit": "%"},
      {"measurement": "survival rate", "setting": "T-47D cells [1]; Annexin V/PI flow cytometry (100 nM, 1 h per Figure S25)", "result": 40, "unit": "%"}
    ]},
    {"smiles": "CC(=O)N[C@@H](CCCCN)C(=O)N[C@@H](CCCNC(=N)N)C(=O)N[C@@H](Cc1c[nH]c2ccccc12)C(=O)N[C@@H](CCCNC(=N)N)C(=O)N[C@@H](Cc1c[nH]c2ccccc12)C(N)=O", "note": "[2g] (Ac-KRWRW-NH2)", "values": [
      {"measurement": "Discrete-well MIC (CLSI definition, two-fold dilutions)", "setting": "E. coli", "result": 125, "unit": "µM"},
      {"measurement": "Extrapolated (interpolated) MIC (4-parameter logistic fit)", "setting": "E. coli", "result": "0.0693 mM and 0.069 ± 0.06 mM"}
    ]}
  ]
}
